Results from patent US20240000872A1, “NOVEL BACTERIOPHAGE THAT LYSES ACINETOBACTER GENUS BACTERIA HAVING RESISTANCE TO ANTIBIOTICS” (priority 2020, published 2024).

System: Acinetobacter baumannii strains
Experiment: Antibiotic susceptibility test (CLSI disk diffusion test method, read per CLSI 2016)
Type: cell-based
Parameters: antibiotic susceptibility test value / susceptibility test value (number given before S/I/R) / antibiotic susceptibility value: unit not given here
Procedure: (§1) Strain identification was performed using a kit such as AT 32 GN system (bioMérieux, Marcy l'Etoile, France). […] In Table 2 below, S, I, and R are the results obtained by evaluating susceptibility to the antibacterial agents, in which ‘S’ means susceptible, ‘I’ means intermediate, and ‘R’ means resistant.
as §1, with “as ATB” for “as AT”, “system (bioMédrieux,” for “system (bioMérieux,”, “Table 6” for “Table 2”
as §1, with “as ATB” for “as AT”, “Table 10” for “Table 2”, “susceptible, T” for “susceptible, ‘I’”

Substance: ampicillin-sulbactam
- antibiotic susceptibility value (host strain YMC16/01/R123): 32
- susceptibility category (S/I/R) (host strain YMC16/01/R123): R
- susceptibility test value (number given before S/I/R) (host strain YMC16/01/R123): 32
- antibiotic susceptibility S/I/R (host strain YMC16/01/R198): S
- antibiotic susceptibility value (host strain YMC16/01/R198): 8
- susceptibility category (S/I/R) (host strain YMC16/01/R198): S
- susceptibility test value (number given before S/I/R) (host strain YMC16/01/R198): 8
- antibiotic susceptibility value (host strain YMC16/01/R353): 16
- susceptibility category (S/I/R) (host strain YMC16/01/R353): I
- susceptibility test value (number given before S/I/R) (host strain YMC16/01/R353): 16
- antibiotic susceptibility S/I/R (host strain YMC16/01/R380): R
- antibiotic susceptibility value (host strain YMC16/01/R380): 32
- susceptibility category (S/I/R) (host strain YMC16/01/R380): R
- susceptibility test value (number given before S/I/R) (host strain YMC16/01/R380): 32
- antibiotic susceptibility S/I/R (host strain YMC16/01/R397): R
- antibiotic susceptibility value (host strain YMC16/01/R397): 32
- susceptibility category (S/I/R) (host strain YMC16/01/R397): R
- susceptibility test value (number given before S/I/R) (host strain YMC16/01/R397): 32
- antibiotic susceptibility value (host strain YMC16/01/R405): 16
- susceptibility category (S/I/R) (host strain YMC16/01/R405): I
- susceptibility test value (number given before S/I/R) (host strain YMC16/01/R405): 16
- antibiotic susceptibility S/I/R (host strain YMC16/03/R4461): S
- antibiotic susceptibility value (host strain YMC16/03/R4461): 4
- susceptibility category (S/I/R) (host strain YMC16/03/R4461): S
- susceptibility test value (number given before S/I/R) (host strain YMC16/03/R4461): 4
- antibiotic susceptibility value (host strain YMC16/05/R2210): 16
- susceptibility category (S/I/R) (host strain YMC16/05/R2210): I
- susceptibility test value (number given before S/I/R) (host strain YMC16/05/R2210): 16
- antibiotic susceptibility value (host strain YMC16/07/R2512): 16
- susceptibility category (S/I/R) (host strain YMC16/07/R2512): I
- susceptibility test value (number given before S/I/R) (host strain YMC16/07/R2512): 16
- antibiotic susceptibility S/I/R (host strain YMC16/09/R2471): R
- antibiotic susceptibility value (host strain YMC16/09/R2471): 32
- susceptibility category (S/I/R) (host strain YMC16/09/R2471): R
- susceptibility test value (number given before S/I/R) (host strain YMC16/09/R2471): 32
- antibiotic susceptibility value (host strain YMC16/10/R2537): 16
- susceptibility category (S/I/R) (host strain YMC16/10/R2537): I
- susceptibility test value (number given before S/I/R) (host strain YMC16/10/R2537): 16
- antibiotic susceptibility S/I/R (host strain YMC16/12/B11422): R
- antibiotic susceptibility value (host strain YMC16/12/B11422): 32
- susceptibility category (S/I/R) (host strain YMC16/12/B11422): R
- susceptibility test value (number given before S/I/R) (host strain YMC16/12/B11422): 32
- antibiotic susceptibility S/I/R (host strain YMC16/12/B11449): R
- antibiotic susceptibility value (host strain YMC16/12/B11449): 32
- susceptibility category (S/I/R) (host strain YMC16/12/B11449): R
- susceptibility test value (number given before S/I/R) (host strain YMC16/12/B11449): 32
- antibiotic susceptibility value (host strain YMC16/12/B13325): 16
- susceptibility category (S/I/R) (host strain YMC16/12/B13325): I
- susceptibility test value (number given before S/I/R) (host strain YMC16/12/B13325): 16
- antibiotic susceptibility S/I/R (host strain YMC16/12/P503): R
- antibiotic susceptibility value (host strain YMC16/12/P503): 32
- susceptibility category (S/I/R) (host strain YMC16/12/P503): R
- susceptibility test value (number given before S/I/R) (host strain YMC16/12/P503): 32
- antibiotic susceptibility S/I/R (host strain YMC16/12/R4637): R
- antibiotic susceptibility value (host strain YMC16/12/R4637): 32
- susceptibility category (S/I/R) (host strain YMC16/12/R4637): R
- susceptibility test value (number given before S/I/R) (host strain YMC16/12/R4637): 32
- antibiotic susceptibility S/I/R (host strain YMC17/01/B8053): S
- antibiotic susceptibility value (host strain YMC17/01/B8053): 8
- susceptibility category (S/I/R) (host strain YMC17/01/B8053): S
- susceptibility test value (number given before S/I/R) (host strain YMC17/01/B8053): 8
- antibiotic susceptibility value (host strain YMC17/01/B10087): 16
- susceptibility category (S/I/R) (host strain YMC17/01/B10087): I
- susceptibility test value (number given before S/I/R) (host strain YMC17/01/B10087): 16
- antibiotic susceptibility value (host strain YMC17/01/B12075): 16
- susceptibility category (S/I/R) (host strain YMC17/01/B12075): I
- susceptibility test value (number given before S/I/R) (host strain YMC17/01/B12075): 16
- antibiotic susceptibility S/I/R (host strain YMC17/01/B13454): R
- antibiotic susceptibility value (host strain YMC17/01/B13454): 32
- susceptibility category (S/I/R) (host strain YMC17/01/B13454): R
- susceptibility test value (number given before S/I/R) (host strain YMC17/01/B13454): 32
- antibiotic susceptibility value (host strain YMC17/01/P518): 16
- susceptibility category (S/I/R) (host strain YMC17/01/P518): I
- susceptibility test value (number given before S/I/R) (host strain YMC17/01/P518): 16
- antibiotic susceptibility S/I/R (host strain YMC17/01/R2812): R
- antibiotic susceptibility value (host strain YMC17/01/R2812): 32
- susceptibility category (S/I/R) (host strain YMC17/01/R2812): R
- susceptibility test value (number given before S/I/R) (host strain YMC17/01/R2812): 32
- antibiotic susceptibility S/I/R (host strain YMC17/02/B14): R
- antibiotic susceptibility value (host strain YMC17/02/B14): 32
- susceptibility category (S/I/R) (host strain YMC17/02/B14): R
- susceptibility test value (number given before S/I/R) (host strain YMC17/02/B14): 32
- antibiotic susceptibility value (host strain YMC17/02/B87): 16
- susceptibility category (S/I/R) (host strain YMC17/02/B87): I
- susceptibility test value (number given before S/I/R) (host strain YMC17/02/B87): 16
- antibiotic susceptibility S/I/R (host strain YMC17/02/B721): R
- antibiotic susceptibility value (host strain YMC17/02/B721): 32
- susceptibility category (S/I/R) (host strain YMC17/02/B721): R
- susceptibility test value (number given before S/I/R) (host strain YMC17/02/B721): 32
- antibiotic susceptibility S/I/R (host strain YMC17/02/B4039): R
- antibiotic susceptibility value (host strain YMC17/02/B4039): 32
- susceptibility category (S/I/R) (host strain YMC17/02/B4039): R
- susceptibility test value (number given before S/I/R) (host strain YMC17/02/B4039): 32
- antibiotic susceptibility S/I/R (host strain YMC17/02/B4520): R
- antibiotic susceptibility value (host strain YMC17/02/B4520): 32
- susceptibility category (S/I/R) (host strain YMC17/02/B4520): R
- susceptibility test value (number given before S/I/R) (host strain YMC17/02/B4520): 32
- antibiotic susceptibility S/I/R (host strain YMC17/02/B4864): S
- antibiotic susceptibility value (host strain YMC17/02/B4864): 2
- susceptibility category (S/I/R) (host strain YMC17/02/B4864): S
- susceptibility test value (number given before S/I/R) (host strain YMC17/02/B4864): 2
- antibiotic susceptibility value (host strain YMC17/02/B8414): 16
- susceptibility category (S/I/R) (host strain YMC17/02/B8414): I
- susceptibility test value (number given before S/I/R) (host strain YMC17/02/B8414): 16
- antibiotic susceptibility value (host strain YMC17/02/P523): 16
- susceptibility category (S/I/R) (host strain YMC17/02/P523): I
- susceptibility test value (number given before S/I/R) (host strain YMC17/02/P523): 16
- antibiotic susceptibility S/I/R (host strain YMC17/02/R541): R
- antibiotic susceptibility value (host strain YMC17/02/R541): 32
- susceptibility category (S/I/R) (host strain YMC17/02/R541): R
- susceptibility test value (number given before S/I/R) (host strain YMC17/02/R541): 32
- antibiotic susceptibility S/I/R (host strain YMC17/02/R2392): R
- antibiotic susceptibility value (host strain YMC17/02/R2392): 32
- susceptibility category (S/I/R) (host strain YMC17/02/R2392): R
- susceptibility test value (number given before S/I/R) (host strain YMC17/02/R2392): 32
- antibiotic susceptibility value (host strain YMC17/03/B4730): 16
- susceptibility category (S/I/R) (host strain YMC17/03/B4730): I
- susceptibility test value (number given before S/I/R) (host strain YMC17/03/B4730): 16
- antibiotic susceptibility S/I/R (host strain YMC17/03/B5000): R
- antibiotic susceptibility value (host strain YMC17/03/B5000): 32
- susceptibility category (S/I/R) (host strain YMC17/03/B5000): R
- susceptibility test value (number given before S/I/R) (host strain YMC17/03/B5000): 32
- antibiotic susceptibility S/I/R (host strain YMC17/03/P971): S
- antibiotic susceptibility value (host strain YMC17/03/P971): 8
- susceptibility category (S/I/R) (host strain YMC17/03/P971): S
- susceptibility test value (number given before S/I/R) (host strain YMC17/03/P971): 8
- antibiotic susceptibility value (host strain YMC17/03/R348): 16
- susceptibility category (S/I/R) (host strain YMC17/03/R348): I
- susceptibility test value (number given before S/I/R) (host strain YMC17/03/R348): 16
- antibiotic susceptibility S/I/R (host strain YMC17/03/R585): R
- antibiotic susceptibility value (host strain YMC17/03/R585): 32
- susceptibility category (S/I/R) (host strain YMC17/03/R585): R
- susceptibility test value (number given before S/I/R) (host strain YMC17/03/R585): 32
- antibiotic susceptibility S/I/R (host strain YMC17/03/R1888): S
- antibiotic susceptibility value (host strain YMC17/03/R1888): 8
- susceptibility category (S/I/R) (host strain YMC17/03/R1888): S
- susceptibility test value (number given before S/I/R) (host strain YMC17/03/R1888): 8
- antibiotic susceptibility value (host strain YMC17/03/R3279): 16
- susceptibility category (S/I/R) (host strain YMC17/03/R3279): I
- susceptibility test value (number given before S/I/R) (host strain YMC17/03/R3279): 16
- antibiotic susceptibility value (host strain YMC17/03/R4077): 16
- susceptibility category (S/I/R) (host strain YMC17/03/R4077): I
- susceptibility test value (number given before S/I/R) (host strain YMC17/03/R4077): 16
- antibiotic susceptibility value (host strain YMC17/03/R4607): 16
- susceptibility category (S/I/R) (host strain YMC17/03/R4607): I
- susceptibility test value (number given before S/I/R) (host strain YMC17/03/R4607): 16
- antibiotic susceptibility value (host strain YMC17/04/R488): 16
- susceptibility category (S/I/R) (host strain YMC17/04/R488): I
- susceptibility test value (number given before S/I/R) (host strain YMC17/04/R488): 16
- antibiotic susceptibility value (host strain YMC17/04/R640): 16
- susceptibility category (S/I/R) (host strain YMC17/04/R640): I
- susceptibility test value (number given before S/I/R) (host strain YMC17/04/R640): 16
- antibiotic susceptibility value (host strain YMC/17/05/R1095): 16
- susceptibility category (S/I/R) (host strain YMC/17/05/R1095): I
- susceptibility test value (number given before S/I/R) (host strain YMC/17/05/R1095): 16
